Assay results published in patent publication US9309242B2, “Substituted pyrido[2,3-b]pyrazines as FGFR kinase inhibitors” (priority 2011, dated 2016).

Legend:
[1] = tested on: Ba/F3-FGFR3-transfected cells; test: Ba/F3-FGFR3 (plus IL3) cellular proliferation assay, counterscreen with 10 ng/ml murine IL3; type: cell-based; settings: plus IL3 (10 ng/ml murine IL3, counterscreen); read-out: BAF3-FGFR3 (PLUS IL3) pIC50 (converted)
In short: (§1)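 FGFR3-Ba/F3, 20000 cells/well, RPMI-1640 + 10% FBS, no phenol red; cpd in DMSO; 24 h, 37° C/5% CO2. Alamar Blue 4 h, RFU ex540/em590. Counterscreen: + murine IL3 10 ng/ml.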

[2] = tested on: Ba/F3-FGFR1-transfected cells; test: Ba/F3-FGFR1 (plus IL3) cellular proliferation assay, counterscreen with 10 ng/ml murine IL3; type: cell-based; settings: plus IL3 (10 ng/ml murine IL3, counterscreen); read-out: BAF3-FGFR1 (PLUS IL3) pIC50 (converted)
In short: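 Ba/F3-FGFR1 cells (20000/well) in RPMI-1640 with 10% FBS exposed to compound for 24 h at 37° C., 5% CO2, then Alamar Blue (resazurin) added for 4 h; fluorescence read at ex 540/em 590 nm. Counterscreen run identically with 10 ng/ml murine IL3.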

[3] = biological target: T1, Ba/F3-KDR-transfected cells (Homo sapiens, UniProt P35968); test: Ba/F3-KDR (minus IL3) cellular proliferation assay, Alamar Blue; type: cell-based
T1 construct: BAF3-KDR (MIN IL3) pIC50; other: minus IL3
T1 sequence (P35968 whole entry, change not shown): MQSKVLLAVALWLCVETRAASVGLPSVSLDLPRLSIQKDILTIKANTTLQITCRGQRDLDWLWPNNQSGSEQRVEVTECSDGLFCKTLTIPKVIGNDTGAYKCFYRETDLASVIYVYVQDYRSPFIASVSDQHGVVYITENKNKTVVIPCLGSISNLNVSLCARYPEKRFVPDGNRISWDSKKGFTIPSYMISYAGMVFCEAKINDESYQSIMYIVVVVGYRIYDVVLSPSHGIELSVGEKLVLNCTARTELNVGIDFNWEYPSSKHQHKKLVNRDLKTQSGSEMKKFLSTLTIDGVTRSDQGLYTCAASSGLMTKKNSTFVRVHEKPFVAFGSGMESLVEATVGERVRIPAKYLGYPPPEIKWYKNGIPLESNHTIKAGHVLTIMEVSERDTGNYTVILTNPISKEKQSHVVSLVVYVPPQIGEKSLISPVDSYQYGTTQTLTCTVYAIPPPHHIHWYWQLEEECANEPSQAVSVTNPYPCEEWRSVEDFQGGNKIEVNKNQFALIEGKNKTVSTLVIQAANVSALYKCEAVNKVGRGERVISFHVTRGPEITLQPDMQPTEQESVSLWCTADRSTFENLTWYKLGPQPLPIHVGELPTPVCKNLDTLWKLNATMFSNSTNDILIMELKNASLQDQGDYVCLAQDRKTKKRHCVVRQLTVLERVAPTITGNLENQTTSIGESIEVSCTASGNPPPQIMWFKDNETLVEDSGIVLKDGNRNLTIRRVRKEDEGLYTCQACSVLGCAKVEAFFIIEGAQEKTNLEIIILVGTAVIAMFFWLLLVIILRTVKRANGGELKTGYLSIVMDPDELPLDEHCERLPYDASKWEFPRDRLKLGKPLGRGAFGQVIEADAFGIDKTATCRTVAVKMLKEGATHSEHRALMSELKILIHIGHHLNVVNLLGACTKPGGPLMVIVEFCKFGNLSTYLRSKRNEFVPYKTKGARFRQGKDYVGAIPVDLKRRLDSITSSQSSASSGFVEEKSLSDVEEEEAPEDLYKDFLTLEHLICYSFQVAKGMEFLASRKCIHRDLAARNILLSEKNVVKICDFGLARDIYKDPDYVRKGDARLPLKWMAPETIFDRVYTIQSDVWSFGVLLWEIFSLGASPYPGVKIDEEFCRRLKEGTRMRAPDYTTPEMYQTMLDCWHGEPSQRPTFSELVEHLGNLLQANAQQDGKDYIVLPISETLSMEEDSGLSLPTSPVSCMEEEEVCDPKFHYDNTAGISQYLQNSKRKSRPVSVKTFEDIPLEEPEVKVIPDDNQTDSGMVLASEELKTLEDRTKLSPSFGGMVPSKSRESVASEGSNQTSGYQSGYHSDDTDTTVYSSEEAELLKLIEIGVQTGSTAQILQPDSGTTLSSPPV
In short: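 Proliferation is measured as Alamar Blue relative fluorescence units following 24 h compound treatment of 20000 cells per well in 10% FBS medium. The IL3-supplemented run serves as a counterscreen under the same conditions.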

[4] = biological target: T2, Ba/F3-FGFR3-transfected cells (Homo sapiens, UniProt P22607); test: Ba/F3-FGFR3 (minus IL3) cellular proliferation assay, Alamar Blue; type: cell-based
T2 construct: BAF3-FGFR3 (MIN IL3) pIC50; other: minus IL3
T2 sequence (P22607 whole entry, change not shown): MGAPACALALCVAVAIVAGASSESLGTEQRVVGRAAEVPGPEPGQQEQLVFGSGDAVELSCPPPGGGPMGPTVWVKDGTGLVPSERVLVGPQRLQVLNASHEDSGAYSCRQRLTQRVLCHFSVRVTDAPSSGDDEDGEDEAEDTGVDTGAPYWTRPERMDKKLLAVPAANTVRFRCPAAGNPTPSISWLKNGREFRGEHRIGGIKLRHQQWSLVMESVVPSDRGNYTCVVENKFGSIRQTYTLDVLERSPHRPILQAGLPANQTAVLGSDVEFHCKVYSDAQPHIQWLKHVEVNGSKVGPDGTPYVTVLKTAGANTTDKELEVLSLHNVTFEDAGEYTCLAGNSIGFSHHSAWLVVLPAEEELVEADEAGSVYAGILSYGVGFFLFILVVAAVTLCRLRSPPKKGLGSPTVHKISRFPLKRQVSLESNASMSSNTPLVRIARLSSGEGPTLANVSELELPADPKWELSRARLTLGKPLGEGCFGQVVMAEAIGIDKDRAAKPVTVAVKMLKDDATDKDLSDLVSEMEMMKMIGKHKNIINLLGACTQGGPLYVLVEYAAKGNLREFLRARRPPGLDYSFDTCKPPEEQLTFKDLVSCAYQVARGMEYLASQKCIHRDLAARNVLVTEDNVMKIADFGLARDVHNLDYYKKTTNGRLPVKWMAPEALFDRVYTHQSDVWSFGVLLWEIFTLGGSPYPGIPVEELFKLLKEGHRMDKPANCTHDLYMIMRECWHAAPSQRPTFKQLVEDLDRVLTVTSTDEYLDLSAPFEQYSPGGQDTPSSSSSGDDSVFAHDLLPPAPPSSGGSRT
In short: as §1

FGFR4 (h) = FGFR4 (h) (Homo sapiens, UniProt P22455); test: FGFR4 (enzymatic assay), TR-FRET; type: biochemical; settings: FGFR 4 pIC50, enzymatic assay
KDR (h) = KDR (h) (Homo sapiens, UniProt P35968); test: KDR (VEGFR2) (enzymatic assay), TR-FRET; type: biochemical; settings: read-out: VEGFR 2 (KDR) pIC50 (converted)
KDR (h), sequence (P35968 20-1356): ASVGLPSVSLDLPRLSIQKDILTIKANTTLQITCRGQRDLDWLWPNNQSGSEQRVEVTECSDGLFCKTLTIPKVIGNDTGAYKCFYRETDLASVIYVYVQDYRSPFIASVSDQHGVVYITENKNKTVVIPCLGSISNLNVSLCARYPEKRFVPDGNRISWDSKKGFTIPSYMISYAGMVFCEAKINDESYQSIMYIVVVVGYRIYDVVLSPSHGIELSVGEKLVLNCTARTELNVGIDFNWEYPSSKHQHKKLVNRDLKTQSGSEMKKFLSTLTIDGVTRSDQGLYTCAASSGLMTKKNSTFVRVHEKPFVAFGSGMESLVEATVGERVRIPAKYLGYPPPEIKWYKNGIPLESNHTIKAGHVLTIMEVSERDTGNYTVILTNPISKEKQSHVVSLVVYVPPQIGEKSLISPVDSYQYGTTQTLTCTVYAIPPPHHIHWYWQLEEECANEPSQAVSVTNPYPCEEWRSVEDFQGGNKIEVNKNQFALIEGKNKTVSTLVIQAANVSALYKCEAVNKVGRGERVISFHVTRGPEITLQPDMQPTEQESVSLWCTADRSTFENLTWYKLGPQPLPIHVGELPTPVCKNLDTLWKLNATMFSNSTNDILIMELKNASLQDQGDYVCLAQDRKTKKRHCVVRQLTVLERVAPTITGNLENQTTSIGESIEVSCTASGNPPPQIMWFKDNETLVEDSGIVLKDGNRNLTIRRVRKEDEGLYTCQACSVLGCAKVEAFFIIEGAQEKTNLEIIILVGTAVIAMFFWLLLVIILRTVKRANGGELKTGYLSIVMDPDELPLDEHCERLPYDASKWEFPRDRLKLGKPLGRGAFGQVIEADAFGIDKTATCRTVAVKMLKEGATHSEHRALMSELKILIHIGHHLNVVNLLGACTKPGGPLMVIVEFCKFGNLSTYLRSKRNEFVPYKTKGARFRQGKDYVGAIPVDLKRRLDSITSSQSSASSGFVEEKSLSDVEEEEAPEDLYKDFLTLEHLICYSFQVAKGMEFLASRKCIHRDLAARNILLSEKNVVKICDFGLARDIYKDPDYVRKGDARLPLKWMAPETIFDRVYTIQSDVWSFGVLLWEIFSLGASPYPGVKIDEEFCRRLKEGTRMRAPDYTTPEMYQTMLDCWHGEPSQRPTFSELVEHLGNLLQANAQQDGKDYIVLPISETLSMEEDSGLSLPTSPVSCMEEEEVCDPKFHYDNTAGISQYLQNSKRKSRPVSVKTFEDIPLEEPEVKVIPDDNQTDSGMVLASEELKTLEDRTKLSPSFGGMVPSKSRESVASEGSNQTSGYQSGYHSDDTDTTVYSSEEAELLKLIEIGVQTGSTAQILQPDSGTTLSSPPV
In short: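 First, kinase (150 ng/ml), Btn-Flt3 (500 nM), ATP (3 μM) and compound (1% DMSO) react 120 min at RT in pH 7.5 HEPES/6 mM MnCl2. Next, EDTA with Eu-anti-P-Tyr and SA-XL-665 stops it for 60 min. Finally, TR-FRET is read as RFU.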

FGFR1 (h) = FGFR1 (h) (Homo sapiens, UniProt P11362); test: FGFR1 (enzymatic assay), TR-FRET; type: biochemical; settings: read-out: FGFR 1 pIC50 (converted)
[5] = biological target: T3, Ba/F3-FGFR1-transfected cells (Homo sapiens, UniProt P11362); test: Ba/F3-FGFR1 (minus IL3) cellular proliferation assay, Alamar Blue; type: cell-based
T3 construct: BAF3-FGFR1 (MIN IL3) pIC50; other: minus IL3
T3 sequence (P11362 whole entry, change not shown): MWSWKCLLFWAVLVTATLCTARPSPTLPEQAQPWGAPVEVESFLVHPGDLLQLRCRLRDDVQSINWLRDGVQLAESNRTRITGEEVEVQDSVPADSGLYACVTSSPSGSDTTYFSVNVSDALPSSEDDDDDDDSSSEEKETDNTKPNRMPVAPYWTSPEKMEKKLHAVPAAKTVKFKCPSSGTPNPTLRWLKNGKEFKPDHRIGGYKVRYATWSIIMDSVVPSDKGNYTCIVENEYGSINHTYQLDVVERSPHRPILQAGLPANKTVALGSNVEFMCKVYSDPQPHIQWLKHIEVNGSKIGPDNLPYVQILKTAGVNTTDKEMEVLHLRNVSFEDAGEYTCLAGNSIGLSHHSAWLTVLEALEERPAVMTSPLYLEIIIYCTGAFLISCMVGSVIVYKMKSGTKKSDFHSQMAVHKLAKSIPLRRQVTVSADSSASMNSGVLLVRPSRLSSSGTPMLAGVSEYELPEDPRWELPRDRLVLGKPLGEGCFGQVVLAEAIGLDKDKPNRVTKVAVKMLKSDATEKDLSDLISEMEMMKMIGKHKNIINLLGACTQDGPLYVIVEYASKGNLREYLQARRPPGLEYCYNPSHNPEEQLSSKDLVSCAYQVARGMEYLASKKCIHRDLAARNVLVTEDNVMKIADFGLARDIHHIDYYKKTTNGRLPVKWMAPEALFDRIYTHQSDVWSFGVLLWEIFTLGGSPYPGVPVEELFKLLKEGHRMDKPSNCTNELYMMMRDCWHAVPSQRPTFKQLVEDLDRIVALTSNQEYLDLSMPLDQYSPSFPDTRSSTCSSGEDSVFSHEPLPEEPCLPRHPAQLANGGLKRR
In short: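 Ba/F3-FGFR1 cells, 20000/well, RPMI-1640 + 10% FBS + 2 mM L-Gln; compound in DMSO; 24 h, 37 °C, 5% CO2; Alamar Blue 4 h; RFU ex 540/em 590.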

[6] = biological target: Ba/F3-FGFR4-transfected cells (Homo sapiens, UniProt P22455); test: Ba/F3-FGFR4 cellular proliferation assay, Alamar Blue; type: cell-based
Ba/F3-FGFR4-transfected cells, sequence (P22455 whole entry, change not shown): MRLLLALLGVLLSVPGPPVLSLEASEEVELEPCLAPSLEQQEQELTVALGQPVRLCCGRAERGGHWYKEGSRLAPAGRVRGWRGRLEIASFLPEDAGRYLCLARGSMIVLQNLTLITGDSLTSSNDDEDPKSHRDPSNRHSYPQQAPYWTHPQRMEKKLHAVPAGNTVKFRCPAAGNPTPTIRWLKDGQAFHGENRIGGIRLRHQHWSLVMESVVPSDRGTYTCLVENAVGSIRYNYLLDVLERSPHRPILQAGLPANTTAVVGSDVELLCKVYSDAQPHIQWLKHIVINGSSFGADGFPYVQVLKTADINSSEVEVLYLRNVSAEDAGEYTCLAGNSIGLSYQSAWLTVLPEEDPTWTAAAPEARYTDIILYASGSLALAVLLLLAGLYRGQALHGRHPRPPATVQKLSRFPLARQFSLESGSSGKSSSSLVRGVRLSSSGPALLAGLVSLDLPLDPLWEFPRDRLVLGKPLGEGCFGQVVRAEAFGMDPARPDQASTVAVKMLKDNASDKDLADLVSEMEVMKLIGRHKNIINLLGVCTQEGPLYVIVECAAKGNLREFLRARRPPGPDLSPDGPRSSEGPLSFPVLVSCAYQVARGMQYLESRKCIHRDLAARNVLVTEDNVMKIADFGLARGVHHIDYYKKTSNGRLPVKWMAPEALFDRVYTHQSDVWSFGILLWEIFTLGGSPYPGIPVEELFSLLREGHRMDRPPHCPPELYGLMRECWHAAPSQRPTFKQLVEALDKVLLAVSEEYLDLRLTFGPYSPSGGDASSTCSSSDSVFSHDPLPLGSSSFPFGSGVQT
In short: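 Proliferation of Ba/F3-FGFR4-transfected cells is gauged by Alamar Blue (resazurin) fluorescence after 24 hours of compound treatment in phenol red free RPMI-1640 with 10% FBS.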

| SMILES | IC50 [1] | IC50 [2] | BAF3-KDR (MIN IL3) pIC50 [3] | BAF3-FGFR3 (MIN IL3) pIC50 [4] | IC50 (FGFR4 (h)) | IC50 (KDR (h)) | IC50 (FGFR1 (h)) | BAF3-FGFR1 (MIN IL3) pIC50 [5] | BAF3-FGFR4 pIC50 [6] |
| --- | --- | --- | --- | --- | --- | --- | --- | --- | --- |
| COc1cc(OC)c(F)c(N(CC(=O)c2cnn(C)c2)c2ccc3ncc(-c4cnn(C)c4)nc3n2)c1 [Compound 225] | > 10000 nM | > 10000 nM | 5.17 | 6.29 | 36.3 nM | 200 nM | 6.61 nM | 6.41 | 5.96 |
| COc1cc(OC)c(F)c(N(Cc2ncc[nH]2)c2ccc3ncc(-c4cnn(C(CO)CCl)c4)nc3n2)c1 (stereo not drawn) [Compound 209] | > 10000 nM | > 10000 nM | 6.57 | 8.25 | 1.12 nM | 7.59 nM | 0.776 nM | 8.71 | 7.92 |
| COc1cc(OC)cc(N(Cc2nn[nH]n2)c2ccc3ncc(-c4cnn(C)c4)nc3n2)c1 [Compound 197] | > 10000 nM | > 10000 nM | <5 | <5 | 34.7 nM | 145 nM | 22.4 nM | <5 | <5 |
| COc1cc(OC)c(F)c(N(CCO)c2ccc3ncc(-c4cnn(CCO)c4)nc3n2)c1 [Compound 233] | > 10000 nM | > 10000 nM | 5.90 | 7.40 | 2.88 nM | 25.7 nM | 0.759 nM | 7.49 | 6.91 |
| COc1cc(/N=c2\ccc3ncc(-c4cnn(C)c4)nc3n2CC2CCCOC2)cc(OC)c1 (stereo not drawn) [Compound 165] | > 10000 nM | > 10000 nM | 6.30 | 7.32 | 2.04 nM | 6.31 nM | 1.15 nM | 7.38 | 7.13 |
| COc1cc(OC)c(F)c(/N=c2\ccc3ncc(-c4cnn(C)c4)nc3n2CCN(C2COC2)C2COC2)c1F [Compound 164] | > 10000 nM | > 10000 nM | 6.86 | 7.89 | 0.977 nM | 3.39 nM | 1.02 nM | 8.01 | ~7.66 |
| COc1cc(/N=c2\ccc3ncc(-c4cnn(C)c4)nc3n2CCN)c(F)c(OC)c1 [Compound 167] | > 10000 nM | > 10000 nM | 5.63 | 6.72 | 4.17 nM | 16.2 nM | 1.86 nM | 6.74 | 6.31 |
| COc1cc(OC)c(F)c(N(Cc2nc(Br)c[nH]2)c2ccc3ncc(-c4cnn(C)c4)nc3n2)c1 [Compound 238] | > 10000 nM | > 10000 nM | 6.46 | ~8.45 | 1.12 nM | 11.2 nM | 0.479 nM | ~8.32 | 8.06 |
| COc1cc(OC)c(F)c(N(CC2CCOC2)c2ccc3ncc(-c4cnn(C)c4)nc3n2)c1 (single isomer, unassigned) [Compound 170] | > 10000 nM | > 10000 nM | 5.56 | 6.78 | 4.9 nM | 13.5 nM | 2.34 nM | 6.92 | 6.49 |
| COc1cc(OC)c(F)c(N(CC2CCC(=O)N2CCO)c2ccc3ncc(-c4cnn(C)c4)nc3n2)c1 (stereo not drawn) [Compound 194] | > 10000 nM | > 10000 nM | 5.18 | 6.16 | 44.7 nM | 126 nM | 11.2 nM | 6.30 | 5.50 |
| COC(=O)CN(c1ccc2ncc(-c3cnn(C)c3)nc2n1)c1cc(OC)cc(OC)c1F [Compound 214] | > 10000 nM | > 10000 nM | 5.31 | ~7.18 | 11.2 nM | 145 nM | 2.4 nM | 7.08 | 6.52 |
| COc1cc(OC)c(F)c(N(Cc2cnn(C)c2)c2ccc3ncc(-c4cnn(C)c4)nc3n2)c1 [Compound 195] | > 10000 nM | > 10000 nM | 5.79 | 8.09 | 0.871 nM | 11.5 nM | 0.589 nM | 8.08 | 7.33 |
| COc1cc(OC)c(F)c(N(CCN)c2ccc3ncc(-c4cnn(C)c4)nc3n2)c1 [Compound 168] | > 10000 nM | > 10000 nM | 5.57 | 6.76 | 4.57 nM | 15.8 nM | 1.7 nM | 7.48 | 6.72 |
| COc1cc(OC)c(F)c(N(CCN2CCOCC2)c2ccc3ncc(-c4cnn(C)c4)nc3n2)c1 [Compound 149] | > 10000 nM | > 10000 nM | 5.89 | ~7.66 | 5.13 nM | 15.5 nM | 2.45 nM | 7.45 | 7.12 |
| COc1cc(OC)c(F)c(N(CC(=O)O)c2ccc3ncc(-c4cnn(C)c4)nc3n2)c1 [Compound 231] | > 10000 nM | > 10000 nM | <5 | 5.75 | 17.8 nM | 200 nM | 4.79 nM | 5.27 | 5.02 |
| COc1cc(/N=c2\ccc3ncc(-c4cnn(C)c4)nc3n2CC2CCC(=O)N2)cc(OC)c1 (stereo not drawn) [Compound 248] | > 10000 nM | > 10000 nM | 5.76 | 6.67 | 8.13 nM | 20 nM | 5.13 nM | 6.70 | 6.25 |
| COc1cc(OC)cc(N(Cc2nncn2CCO)c2ccc3ncc(-c4cnn(C)c4)nc3n2)c1 [Compound 204] | > 10000 nM | > 10000 nM | <5 | 6.09 | 60.3 nM | 302 nM | 11.2 nM | 6.15 | 5.49 |
| COc1cc(OC)c(F)c(N(CCN(C2COC2)C2COC2)c2ccc3ncc(-c4cnn(C)c4)nc3n2)c1F (single isomer, unassigned) [Compound 163] | > 10000 nM | > 10000 nM | 6.21 | 7.34 | 3.24 nM | 8.51 nM | 0.977 nM | 7.82 | 7.32 |
| COc1cc(/N=c2\ccc3ncc(-c4cnn(C)c4)nc3n2Cc2cc(C)on2)c(F)c(OC)c1 [Compound 181] | > 10000 nM | > 10000 nM | 5.97 | 8.05 | 1.05 nM | 6.76 nM | 1.51 nM | 7.76 | 7.55 |
| COc1cc(OC)cc(N(Cc2ncc[nH]2)c2ccc3ncc(-c4ccncc4)nc3n2)c1 [Compound 202] | > 10000 nM | > 10000 nM | 5.24 | ~7.67 | 2.82 nM | 61.7 nM | 1.12 nM | 7.47 | 6.81 |
